Our source for the IC50 and EC50 values is patent US20260138988A1, “Spiropyrrolidine Derived Antiviral Agents” (Enanta Pharmaceuticals, Inc., priority 2021, published 2026).

pEC50, pIC50: −log10 of the molar value. Read-outs that look alike come from different tables or passages of the source. Some results are limits rather than exact numbers.

For one assay, the target named is SARS-CoV-2 3CL-protease (Severe acute respiratory syndrome coronavirus 2, UniProt P0DTD1). Put plainly: SARS-CoV-2 3C-Like (3CL) Protease Fluorescence Assay (FRET). The class given is biochemical. The note with it: test compounds 0-10 μM, duplicate.
Assay [1] deals with 229E human corona virus (hCoV). Nature of the assay: 229E live virus assay (MRC-5 cells, CPE, ATPlite readout). The class given is cell-based, hCoV-229E. The note with it: Human coronavirus 229E, MRC5, 144 h, read-out: 229E EC50. For orientation: Cellular ATP, detected with luciferase, serves as a proxy for viable cell number.
[2] abbreviates: IC50, SARS-CoV-2 3CL-protease 10 nM.
Setting [3] is: SARS-CoV-2 3CL-protease 10 nM, read-out: IC50.
Setting [4] is: hCoV-229E in MRC-5 cells, MOI 0.05, 6 days at 34° C., ATPlite, run in duplicate.

As to `CC(C)(C)C(NC(=O)OCc1ccccc1)C(=O)N1CCC[C@H]1C(=O)N1C[C@]2(C[C@H]1C#N)C(=O)Nc1ccccc12` (some centres unmarked) [Example 55], the pIC50 at SARS-CoV-2 3CL-protease (setting [2]) was 6.00 to 7.00. The pEC50 in assay [1] is less than 6.00.
Turning to `CC(C)C[C@@H](C(=O)N1C[C@]2(C[C@H]1C#N)C(=O)Nc1ccccc12)N(C)C(=O)[C@H](C)NC(=O)c1ccccc1-c1ccc(C(F)(F)F)cc1` [Example 150], the pIC50 at SARS-CoV-2 3CL-protease (setting [3]) was more than 7.00. Further, the pEC50 in assay [1] (setting [4]) is 6.00 to 7.00.
The like results for `CC(C)C[C@@H](C(=O)N1C[C@]2(C[C@H]1C#N)C(=O)Nc1ccccc12)N(C)C(=O)[C@@H]1CC[C@H](c2ccccc2)N1` [Example 159] were, in that order, more than 7.00 and 6.00 to 7.00.
Taken in the same sequence, the figures for `CC(C)C[C@@H](C(=O)N1C[C@]2(C[C@H]1C#N)C(=O)Nc1ccccc12)N(C)C(=O)[C@H](C)NC(=O)C(F)(F)C(F)(F)F` [Example 136] were more than 7.00 and more than 7.00.
Taken in the same sequence, the figures for `CC(C)C[C@@H](C(=O)N1C[C@]2(C[C@H]1C#N)C(=O)Nc1ccccc12)N(C)C(=O)[C@@H]1CC[C@@H](c2ccccc2)N1C(C)C` [Example 162] were more than 7.00 and more than 7.00.
For the compound `CC(C)C[C@@H](C(=O)N1C[C@]2(C[C@H]1C#N)C(=O)Nc1ccccc12)N(C)C(=O)[C@@H]1CCCN1C` [Example 160], the pIC50 on SARS-CoV-2 3CL-protease (setting [3]) is more than 7.00. Further, in assay [1] (setting [4]), the pEC50 was more than 7.00.
As to `CC(C)C[C@@H](C(=O)N1C[C@]2(C[C@H]1C#N)C(=O)Nc1ccccc12)N(C)C(=O)[C@@H]1CC[C@@H](c2ccccc2)N1` [Example 158], at SARS-CoV-2 3CL-protease (setting [3]), the pIC50 was more than 7.00. Moreover, the pEC50 in assay [1] (setting [4]) was more than 7.00.
With `C[C@H](NC(=O)c1ccc(F)c(F)c1)C(=O)N(C)[C@@H](CC(C)(C)C)C(=O)N1C[C@]2(C[C@H]1C#N)C(=O)Nc1ccccc12` [Example 156], at SARS-CoV-2 3CL-protease (setting [3]), the pIC50 is more than 7.00. In addition, the pEC50 in assay [1] (setting [4]) is more than 7.00.
For `CC(C)[C@H](NS(=O)(=O)c1ccc(F)cc1)C(=O)N(C)[C@@H](CC(C)(C)C)C(=O)N1C[C@]2(C[C@H]1C#N)C(=O)Nc1ccccc12` [Example 111], the pIC50 at SARS-CoV-2 3CL-protease (setting [2]) is more than 7.00. Moreover, the pEC50 in assay [1] was 6.00 to 7.00.
For the compound `C[C@@H](C(=O)N(C)[C@@H](CC(C)(C)C)C(=O)N1C[C@]2(C[C@H]1C#N)C(=O)Nc1ccccc12)n1cc(C2CC2)nn1` [Example 157], at SARS-CoV-2 3CL-protease (setting [3]), the negative logarithm of the IC50 (pIC50) is more than 7.00. Further, in assay [1] (setting [4]), the pEC50 was more than 7.00.
For `CC(C)C[C@@H](C(=O)N1C[C@]2(C[C@H]1C#N)C(=O)Nc1ccccc12)N(C)C(=O)[C@H](C)NC(=O)c1ccc(F)cn1` [Example 164], the pIC50 at SARS-CoV-2 3CL-protease (setting [3]) was more than 7.00. Further, the negative logarithm of the EC50 (pEC50) in assay [1] (setting [4]) is more than 7.00.
`CC(C)C[C@@H](C(=O)N1C[C@]2(C[C@H]1C#N)C(=O)Nc1ccccc12)N(C)C(=O)[C@H](C)NC(=O)c1ccc(-c2ccc(F)cc2)cc1F` [Example 149]: the pIC50 at SARS-CoV-2 3CL-protease (setting [3]) was more than 7.00. Moreover, in assay [1] (setting [4]), the negative logarithm of the EC50 (pEC50) is more than 7.00.
Turning to `C[C@H](NC(=O)c1ccc(F)c(Cl)c1)C(=O)N(C)[C@@H](CC(C)(C)C)C(=O)N1C[C@]2(C[C@H]1C#N)C(=O)Nc1ccccc12` [Example 155], on SARS-CoV-2 3CL-protease (setting [3]), the pIC50 is more than 7.00. Further, the pEC50 in assay [1] (setting [4]) is more than 7.00.

Usually pIC50 stands for the IC50 on a negative log10 scale, so that one unit is a factor of ten. In general, pEC50 refers to −log10 of the EC50, conventionally taken in molar units.
